Reference: patent US20260209234A1, “SUBSTITUTED DIHYDROPYRROLO[3,4-D]PYRIMIDINE COMPOUNDS AND THEIR USE IN TREATING MEDICAL CONDITIONS” (Karuna Therapeutics, Inc., priority 2022, published 2026)
pEC50: −log10 of the molar value.

Key:
hM4 receptors = molecular target: T1, hM4 receptors (Homo sapiens, UniProt P08173); assay: Human M4 PAM pERK assay; format: cell-based; settings: CHO cells expressing hM4; EC20 of acetylcholine (10 nM final); TR-FRET
T1 construct: expressed in transfected cells; host or cells: CHO cells
T1 sequence (P08173 1-479): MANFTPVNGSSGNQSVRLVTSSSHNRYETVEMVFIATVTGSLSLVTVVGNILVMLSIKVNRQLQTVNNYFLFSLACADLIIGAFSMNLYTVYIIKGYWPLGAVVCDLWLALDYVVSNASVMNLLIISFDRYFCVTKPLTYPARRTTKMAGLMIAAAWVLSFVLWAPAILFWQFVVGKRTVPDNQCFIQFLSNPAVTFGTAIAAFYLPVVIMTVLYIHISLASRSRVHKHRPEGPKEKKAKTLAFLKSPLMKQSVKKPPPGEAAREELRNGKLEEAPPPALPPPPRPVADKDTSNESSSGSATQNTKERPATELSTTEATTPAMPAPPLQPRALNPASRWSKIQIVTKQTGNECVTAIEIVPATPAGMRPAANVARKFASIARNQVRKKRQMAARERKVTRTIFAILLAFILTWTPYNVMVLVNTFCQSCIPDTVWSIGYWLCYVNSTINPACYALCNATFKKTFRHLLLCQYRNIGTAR

human M4 receptor = molecular target: T2, human M4 receptor (Homo sapiens, UniProt P08173); assay: M4 GTPγS PAM assay; format: biochemical; settings: membranes of CHO-K1 cells stably expressing human M4; EC20 acetylcholine 40 nM; 35S-GTP
T2 construct: expressed in transfected cells
T2 sequence (P08173 1-479): T1 sequence (P08173 1-479)
Method in brief: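 CHO-K1 membranes stably expressing human M4, preincubated with compound and 0.1 μM GDP (final) in 20 mM HEPES, 10 mM MgCl2, 100 mM NaCl, pH 7.4, then EC20 acetylcholine (40 nM final). 35S-GTPγS binding 1 h at room temperature, filtration and scintillation counting.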

COc1nc(C#N)nc2c1C(C)N(C(=O)CC1CN(c3ccnc(C(F)(F)F)c3)C1)C2 (single isomer, unassigned) [Compound I-6, 4-Methoxy-5-methyl-6-(2-(1-(2-(trifluoromethyl)pyridin-4-yl)azetidin-3-yl)acetyl)-6,7-dihydro-5H-pyrrolo[3,4-d]pyrimidine-2-carbonitrile]
pEC50 (hM4 receptors): ≥ 7.00
pEC50 (human M4 receptor): ≥ 7.00

COc1nc(C)nc2c1C(C)N(C(=O)CC1CN(c3ccnc(C(F)(F)F)c3)C1)C2 (single isomer, unassigned) [Compound I-52, 1-(4-Methoxy-2,5-dimethyl-5,7-dihydro-6H-pyrrolo[3,4-d]pyrimidin-6-yl)-2-(1-(2-(trifluoromethyl)pyridin-4-yl)azetidin-3-yl)ethan-1-one]
pEC50 (hM4 receptors): 6.30 to 7.00
pEC50 (human M4 receptor): ≥ 7.00
